Read-outs that look alike come from different tables or passages of the source.
Key:
[1] = target: T1, human jejunal NK2 receptor (Homo sapiens, UniProt P21452); test: Antagonism of iodinated tachykinin binding to NK2 receptor (125iodohistidyl-1-neurokinin A, HSKR-1 cell membranes); details: HSKR-1 cells (mouse 3T3 fibroblasts expressing human jejunal NK2 receptor); mean of several experiments; read-out: NK-2 IC50
T1 construct: expressed in transfected cells; host or cells: HSKR-1 cells (mouse 3T3 fibroblasts)
T1 sequence (P21452 1-398): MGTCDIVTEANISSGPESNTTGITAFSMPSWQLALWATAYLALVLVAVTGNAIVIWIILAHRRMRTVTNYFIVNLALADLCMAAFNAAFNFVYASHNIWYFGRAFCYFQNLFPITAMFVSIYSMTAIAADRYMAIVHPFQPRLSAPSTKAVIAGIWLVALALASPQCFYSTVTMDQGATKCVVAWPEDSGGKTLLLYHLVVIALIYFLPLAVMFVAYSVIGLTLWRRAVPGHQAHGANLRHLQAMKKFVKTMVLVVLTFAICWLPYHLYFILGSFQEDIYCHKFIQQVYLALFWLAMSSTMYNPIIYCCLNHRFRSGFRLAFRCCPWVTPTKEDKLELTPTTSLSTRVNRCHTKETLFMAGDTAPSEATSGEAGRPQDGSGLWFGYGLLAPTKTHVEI
Procedure: (§1) The NK1 receptor affinity of proposed tachykinin antagonists was devaluated in guinea pig lungs (Keystone Biologicals, Cleveland, OH), affinity for the NK2 receptor evaluated in HSKR-1 cells (which are mouse 3T3 fibroblasts expressing the human jejunal NK2 receptor) and NK-3 receptor affinity was evaluated in freshly collected guinea pig cerebral cortex. Tissues or cells were homogenized with a Polytron in 15 volumes of 50 mM Tris-HCl buffer (pH 7.4, 4°C) and centrifuged. The pellet was resuspended in Tris-HCl buffer and was centrifuged; the pellet was washed twice by resuspension. The final pellet was resuspended at a concentration of 40 mg/ml for tissues (guinea pig lung and cerebral cortex) and 20 mg/ml for cells in incubation buffer and remained at room temperature for at least 15 min prior to use. Receptor binding was initiated by addition of 250 µl membrane preparation in duplicate to 0.1 nM of the following radioligands: ^125I-Bolton Hunter Lys-3 labeled substance P; ^125iodohistidyl-1-neurokinin A; and ^125I-Bolton Hunter labeled Lys-4 eledoisin in a final volume of 500 µl of buffer containing 50 mM Tris-HCl (pH 7.4 at room temperature), 0.1% bovine serum albumin, 2 mM MnCl2, 40 µg/ml bacitracin, 4 µg/ml leupeptin and chymostatin, 1 µM thiorphan and various doses of the putative tachykinin antagonists. Incubations were performed at room temperature for 90 min (NK1 receptor assays) or 2 hr (NK2 and NK3 receptor assays); binding was terminated by addition of 50 mM Tris-HCl buffer (pH 7.4, 4°C) and filtration under vacuum through GF/B filters presoaked with 0.1% polyethyleneimine (NK1 receptor assays) or 0.5% bovine serum albumin (NK2 and NK3 receptor assays). Filter bound radioactivity was quantitated in a gamma counter. Nonspecific binding was defined as binding in the presence of 1 µM substance P, neurokinin A, or eledoisin. Specific binding was calculated by subtracting nonspecific binding from total binding. Competition of iodinated SP, NKA, or eledoisin binding by test compounds or standards was expressed as a percentage of this maximum competition. IC50 values (concentration required to inhibit 50% of receptor binding) were generated for each of the test compounds by nonlinear regression using an iterative curve fitting program (GraphPAD Inplot, San Diego, CA).

NK1 receptor = target: T2, NK1 receptor (Cavia porcellus, UniProt P30547); test: Antagonism of iodinated tachykinin binding to NK1 receptor (125I-Bolton Hunter Lys-3 labeled substance P, guinea pig lung membranes)
T2 construct: Tissues or cells were homogenized with a Polytron in 15 volumes of 50 mM Tris-HCl buffer; tissue Keystone Biologicals, Cleveland, OH; host or cells: guinea pig lung membranes
Procedure: as §1

NK-3 receptor = target: T3, NK-3 receptor (Cavia porcellus, UniProt P30098); test: Antagonism of iodinated tachykinin binding to NK-3 receptor (125I-Bolton Hunter labeled Lys-4 eledoisin, guinea pig cerebral cortex membranes)
T3 construct: freshly collected guinea pig cerebral cortex; from tissue; host or cells: guinea pig cerebral cortex membranes
T3 sequence (P30098 1-440): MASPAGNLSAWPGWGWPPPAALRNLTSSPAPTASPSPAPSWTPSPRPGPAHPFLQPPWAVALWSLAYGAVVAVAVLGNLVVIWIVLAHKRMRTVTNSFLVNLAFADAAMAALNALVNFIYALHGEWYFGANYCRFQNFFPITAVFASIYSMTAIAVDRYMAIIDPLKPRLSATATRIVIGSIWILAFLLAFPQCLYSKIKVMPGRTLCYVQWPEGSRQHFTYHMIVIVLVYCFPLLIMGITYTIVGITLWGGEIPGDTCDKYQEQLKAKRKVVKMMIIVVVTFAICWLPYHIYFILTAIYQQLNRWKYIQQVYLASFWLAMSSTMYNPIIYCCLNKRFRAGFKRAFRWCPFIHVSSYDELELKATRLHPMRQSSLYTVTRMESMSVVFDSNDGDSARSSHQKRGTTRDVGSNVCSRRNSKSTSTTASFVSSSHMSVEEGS
Procedure: as §1

[2] = system: capsaicin-induced respiratory effects; test: Antagonism of capsaicin aerosol induced respiratory effects in conscious guinea pigs (whole body plethysmography); assay type: in vivo, guinea pig; details: for DYSPNEA ONSET / MAXIMUM PRESSURE INCREASE (mmH2O) / SRE NUMBER*: mean and SEM; for SRE NUMBER*: number of coughs/gasps during 19 min exposure
Procedure: In vivo experiments were performed using male Duncan Hartley guinea pigs (250-350g). Changes in conscious breathing patterns were monitored in four animals simultaneously using modified whole body plethysmography consisting of four small plexiglass boxes each connected to a reference box via Validyne DP 45-16 differential pressure transducers. The 4 boxes were equipped with an air supply line (also used for aerosol delivery) and an exhaust air line. Supply and exhaust lines were of the same length and narrow bore and arose from a common supply chamber and vented to a common exhaust chamber. This system was used to ensure that fluctuations in supply air and atmospheric pressure would remain in phase and be eliminated from the net signal by the differential pressure transducers. The analog pressure signals were digitalized via a Data Translation DT2821 A to D board. Data were collected at a rate of 100 samples/second/animal. Each cycle of pressure change was analyzed using the following parameters: rising and falling slope determined between minimum and maximum pressures, the ratio of rising over falling slope, and the magnitude of the change between initial trough pressure and peak cycle pressure. Using these values (and observing the animals) the pressure cycles were characterized into normal breaths, forced exhalations (apparent by abdominal heaving), significant respiratory events (SREs; usually coughs, less often sneezes or gasps which were characterized by transient, extremely large pressure increases which were distinguishable from noise) and movement/noise with a PCAT 286 running a System V UNIX operating system. Dyspnea was defined as a significant, sustained increase in plethysmograph pressure which was associated with an observable shift to labored breathing in the animal.
During the course of a typical experiment in which airway responsiveness to various bronchoconstricting agents was examined, aerosols were delivered for 19 min (0.33 ml/min) using a DeVilbiss Ultraneb 99 ultrasonic nebulizer and animals monitored during this time. Prior to nebulization, 1 min of resting breathing was collected to establish a baseline pressure. […] The vehicle for nebulization of all bronchoconstrictive agents was phosphate buffered saline (pH 7.4) which elicited no respiratory effects itself. Putative tachykinin antagonists were administered either (i.v.) 20 min prior to onset of aerosol exposure or orally 1 hour prior to onset (to guinea pigs after an overnight fast).
Capsaicin aerosol is known to promote release of the tachykinins SP and NKA from sensory nerves in the airways of guinea pigs which may then act upon NK1 and NK2 receptors, respectively to elicit respiratory effects. […]
(§2) Values are mean and SEM of data derived from number of animals indicated in parenthesis. Putative tachykinin antagonists were administered intravenously 20 min prior to initiation of capsaicin aerosol (0.001%). *SRE number indicates the number of coughs/gasps which occurred during the 19 min capsaicin exposure period.
as §2, with “by oral gavage 1 hr” for “intravenously 20 min”

[3] = guinea pig lungs, mean of several experiments, read-out: NK-1 IC50
[4] = 25 mg/kg by oral gavage 1 hr prior to capsaicin aerosol (0.001%)
[5] = 50 mg/kg by oral gavage 1 hr prior to capsaicin aerosol (0.001%)
[6] = guinea pig cerebral cortex, mean of several experiments, read-out: NK-3 IC50

T2 sequence (P30547 whole entry): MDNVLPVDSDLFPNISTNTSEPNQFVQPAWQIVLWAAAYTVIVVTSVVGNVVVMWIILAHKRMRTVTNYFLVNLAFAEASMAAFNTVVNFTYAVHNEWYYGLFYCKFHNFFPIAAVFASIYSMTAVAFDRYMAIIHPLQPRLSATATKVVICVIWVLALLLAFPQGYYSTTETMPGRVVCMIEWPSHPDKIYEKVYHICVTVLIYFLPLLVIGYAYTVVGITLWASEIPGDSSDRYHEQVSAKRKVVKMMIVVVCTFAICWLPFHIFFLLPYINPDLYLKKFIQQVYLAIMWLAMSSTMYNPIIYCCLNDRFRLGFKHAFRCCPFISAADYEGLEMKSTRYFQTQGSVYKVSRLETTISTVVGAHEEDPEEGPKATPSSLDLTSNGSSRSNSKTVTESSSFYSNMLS

Compound | IC50 [1] | IC50 (NK1 receptor; [3]) | IC50 (NK-3 receptor) | IC50 (NK-3 receptor; [6]) | further results
COc1ccc(C(=O)N2CCC(CCN3CCC(C(N)=O)(c4ccccc4)CC3)(c3ccc(Cl)c(Cl)c3)C2)c(OC)c1 (stereo not shown) [Example 2, 1-[2-[3-(3,4-dichloro-phenyl)-1-(2,4-dimethoxy-benzoyl)-pyrrolidin-3-yl]-ethyl]-4-phenyl-piperidine-4-carboxylic acid amide] | 0.034 µM | 0.131 µM | 0.065 µM | – | –
COc1ccccc1CC(=O)N1CCC(CCN2CCC(C(N)=O)(c3ccccc3)CC2)(c2ccc(Cl)c(Cl)c2)C1 (stereo not shown) [Example 4, 1-(2-[3-(3,4-dichloro-phenyl)-1-[2-(2-methoxy-phenyl)-acetyl]-pyrrolidin-3-yl]-ethyl)-4-phenyl-piperidine-4-carboxylic acid amide] | 0.074 µM | – | 0.041 µM | – | –
COc1cccc(OC)c1C(=O)N1CCC(CCN2CCC(C(N)=O)(c3ccccc3)CC2)(c2ccc(Cl)c(Cl)c2)C1 (stereo not shown) [Example 5, 1-[2-[3-(3,4-dichloro-phenyl)-1-(2,6-dimethoxy-benzoyl)-pyrrolidin-3-yl]-ethyl]-4-phenyl-piperidine-4-carboxylic acid amide] | 0.041 µM | – | 0.065 µM | – | DYSPNEA INCIDENCE [2, 4]: 66.7% (6/9); DYSPNEA ONSET [2, 4]: 253 ± 47 s; MAXIMUM PRESSURE INCREASE (mmH2O) [2, 4]: 0.7 ± 0.1 mmH2O; SRE NUMBER* [2, 4]: 4.4 ± 1.2; DYSPNEA INCIDENCE [2, 5]: 85.7% (6/7); DYSPNEA ONSET [2, 5]: 384 ± 85 s; MAXIMUM PRESSURE INCREASE (mmH2O) [2, 5]: 0.5 ± 0.1 mmH2O; SRE NUMBER* [2, 5]: 4.9 ± 1.9; IC50 (NK1 receptor): 0.02 µM
COC(=O)[C@@H](NC(=O)C1(c2ccccc2)CCN(CCC2(c3ccc(Cl)c(Cl)c3)CCN(C(=O)c3ccccc3)C2)CC1)[C@@H](C)O (stereo partly shown) [Example 7, 2-[(1-(2-[1-benzoyl-3-(3,4-dichloro-phenyl)-pyrrolidin-3-yl]-ethyl)-4-phenyl-piperidine-4-carboxyl)-amino]-3-hydroxy butyric acid methyl ester] | 0.01 µM | 0.24 µM | – | 0.202 µM | –
COc1cccc(OC)c1C(=O)N1CCC(CCN2CCC3(CC2)C(=O)NCN3c2ccccc2)(c2ccc(Cl)c(Cl)c2)C1 (stereo not shown) [Example 9, 8-[2-[3-(3,4-dichloro-phenyl)-1-(2,6-dimethoxy-benzoyl)-pyrrolidin-3-yl]-ethyl]-1-phenyl-1,3,8-triaza-spiro[4.5]decane-4-one] | 0.118 µM | 0.049 µM | – | 0.183 µM | –
O=C(c1ccccc1)N1CCC(CCN2CCC3(CC2)C(=O)NCN3c2ccccc2)(c2ccc(Cl)c(Cl)c2)C1 (stereo not shown) [Example 10, 8-[2-[3-(3,4-dichloro-phenyl)-1-benzoyl-pyrrolidin-3-yl]-ethyl]-1-phenyl-1,3,8-triaza-spiro[4.5]-decane-4-one] | 0.011 µM | 0.255 µM | – | 1.19 µM | –
NC(=O)C1(c2ccccc2)CCN(CCC2(c3ccc(Cl)c(Cl)c3)CC(=O)N(Cc3ccccc3)C2)CC1 (stereo not shown) [Example 11, 1-[2-[1-benzyl-3-(3,4-dichloro-phenyl)-5-oxo-pyrrolidin-3-yl]-ethyl]-4-phenyl-piperidine-4-carboxylic acid amide] | 0.127 µM | 0.196 µM | – | 0.203 µM | –
